Values after ≈ are worked out from the molar mass of the structure shown.
Test system: G(−) bacterial strains
Test: Dilution antimicrobial susceptibility tests (MIC, NCCLS agar dilution / broth dilution)
Format: cell-based, Gram-negative organisms
Conditions: unit assumed
Summary of the method: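 Agar dilution on Mueller-Hinton agar at 10^4 CFU/spot and broth dilution at 5×10^5 CFU/well, per NCCLS M7-A5. Streptococci tested on Mueller-Hinton agar with 5% sheep blood. MIC taken as minimum inhibitory concentration; ATCC control strains run alongside.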

[1] = strain #1 Acinetobacter calcoaceticus
[2] = strain #2 Acinetobacter baumannii, Cf-R, Ci-R
[3] = strain #3 Acinetobacter baumannii, Cf-R, Ci-R, Mp-I
[4] = strain #4 Acinetobacter baumannii, Cf-R, Imp-I, CBPase
[5] = strain #7 Enterobacter aerogenes
[6] = strain #8 Enterobacter cloacae, Cf-R, B+
[7] = strain #9 Enterobacter cloacae, Cf-R
[8] = strain #10 Escherichia coli, Ci-R
[9] = strain #11 Escherichia coli, Ci-R, AmpC
[10] = strain #15 Klebsiella pneumoniae
[11] = strain #16 Moraxella catarrhalis
[12] = strain #21 Providencia rettgeri
[13] = strain #22 Salmonella typhimurium
[14] = strain #25 Shigella dysenteriae
[15] = strain #28 Stenotrophomonas maltophilia
[16] = strain #29 Pseudomonas aeruginosa
[17] = strain #30 Pseudomonas aeruginosa
[18] = strain #31 Pseudomonas aeruginosa, Ofx-R
[19] = strain #32 Pseudomonas aeruginosa, Cf-R
[20] = strain #33 Pseudomonas aeruginosa, Ci-R
[21] = strain #34 Pseudomonas aeruginosa, Gen-R
[22] = strain #35 Pseudomonas aeruginosa, Ip-R
[23] = strain #36 Pseudomonas aeruginosa, Cf-R, Ci-R, Mp-R

C[C@@H](O)C1C(=O)N2C(C(=O)O)=C(CN3CC(NC(=N)N)C3)[C@H](C)C12 (stereo partly drawn) [Compound 89]
MIC [1]: 0.13 µg/mL (≈ 0.385 µM)
MIC [2]: 1 µg/mL (≈ 2.96 µM)
MIC [3]: 1 µg/mL (≈ 2.96 µM)
MIC [4]: 0.5 µg/mL (≈ 1.48 µM)
MIC (strain #5 Citrobacter diversus): 0.13 µg/mL (≈ 0.385 µM)
MIC (strain #6 Citrobacter freundii): 0.25 µg/mL (≈ 0.741 µM)
MIC [5]: 1 µg/mL (≈ 2.96 µM)
MIC [6]: 0.13 µg/mL (≈ 0.385 µM)
MIC [7]: 0.25 µg/mL (≈ 0.741 µM)
MIC [8]: 0.13 µg/mL (≈ 0.385 µM)
MIC [9]: 0.13 µg/mL (≈ 0.385 µM)
MIC (strain #12 Escherichia coli): 0.13 µg/mL (≈ 0.385 µM)
MIC (strain #13 Escherichia coli): 0.25 µg/mL (≈ 0.741 µM)
MIC (strain #14 Klebsiella oxytoca): 0.5 µg/mL (≈ 1.48 µM)
MIC [10]: 0.25 µg/mL (≈ 0.741 µM)
MIC [11]: ≤ 0.008 µg/mL
MIC (strain #17 Morganella Morganii): 2 µg/mL (≈ 5.93 µM)
MIC (strain #18 Morganella Morganii): 2 µg/mL (≈ 5.93 µM)
MIC (strain #19 Proteus vulgaris): 0.5 µg/mL (≈ 1.48 µM)
MIC (strain #20 Proteus mirabilis): 0.25 µg/mL (≈ 0.741 µM)
MIC [12]: 1 µg/mL (≈ 2.96 µM)
MIC [13]: 0.25 µg/mL (≈ 0.741 µM)
MIC (strain #23 Serratia marcescens): 0.5 µg/mL (≈ 1.48 µM)
MIC (strain #24 Serratia marcescens): 0.5 µg/mL (≈ 1.48 µM)
MIC [14]: 0.25 µg/mL (≈ 0.741 µM)
MIC (strain #26 Shigella sonnei): 0.25 µg/mL (≈ 0.741 µM)
MIC (strain #27 Shigella flexneri): 0.13 µg/mL (≈ 0.385 µM)
MIC [15]: 0.13 µg/mL (≈ 0.385 µM)
MIC [16]: 1 µg/mL (≈ 2.96 µM)
MIC [17]: 1 µg/mL (≈ 2.96 µM)
MIC [18]: 0.5 µg/mL (≈ 1.48 µM)
MIC [19]: 1 µg/mL (≈ 2.96 µM)
MIC [20]: 1 µg/mL (≈ 2.96 µM)
MIC [21]: 1 µg/mL (≈ 2.96 µM)
MIC [22]: 4 µg/mL (≈ 11.9 µM)
MIC [23]: 8 µg/mL (≈ 23.7 µM)

C[C@@H](O)C1C(=O)N2C(C(=O)O)=C(CN3CC(N)C3)[C@H](C)C12 (stereo partly drawn) [Compound 93]
MIC [1]: 1 µg/mL (≈ 3.39 µM)
MIC [2]: 2 µg/mL (≈ 6.77 µM)
MIC [3]: 8 µg/mL (≈ 27.1 µM)
MIC [4]: 2 µg/mL (≈ 6.77 µM)
MIC (strain #5 Citrobacter diversus): 0.25 µg/mL (≈ 0.846 µM)
MIC (strain #6 Citrobacter freundii): 0.5 µg/mL (≈ 1.69 µM)
MIC [5]: 2 µg/mL (≈ 6.77 µM)
MIC [6]: 0.25 µg/mL (≈ 0.846 µM)
MIC [7]: 0.5 µg/mL (≈ 1.69 µM)
MIC [8]: 0.25 µg/mL (≈ 0.846 µM)
MIC [9]: 0.25 µg/mL (≈ 0.846 µM)
MIC (strain #12 Escherichia coli): 0.25 µg/mL (≈ 0.846 µM)
MIC (strain #13 Escherichia coli): 0.5 µg/mL (≈ 1.69 µM)
MIC (strain #14 Klebsiella oxytoca): 0.5 µg/mL (≈ 1.69 µM)
MIC [10]: 0.5 µg/mL (≈ 1.69 µM)
MIC [11]: 0.031 µg/mL (≈ 0.105 µM)
MIC (strain #17 Morganella Morganii): 8 µg/mL (≈ 27.1 µM)
MIC (strain #18 Morganella Morganii): 4 µg/mL (≈ 13.5 µM)
MIC (strain #19 Proteus vulgaris): 2 µg/mL (≈ 6.77 µM)
MIC (strain #20 Proteus mirabilis): 0.5 µg/mL (≈ 1.69 µM)
MIC [12]: 2 µg/mL (≈ 6.77 µM)
MIC [13]: 0.5 µg/mL (≈ 1.69 µM)
MIC (strain #23 Serratia marcescens): 1 µg/mL (≈ 3.39 µM)
MIC (strain #24 Serratia marcescens): 1 µg/mL (≈ 3.39 µM)
MIC [14]: 0.5 µg/mL (≈ 1.69 µM)
MIC (strain #26 Shigella sonnei): 0.5 µg/mL (≈ 1.69 µM)
MIC (strain #27 Shigella flexneri): 0.25 µg/mL (≈ 0.846 µM)
MIC [15]: 0.5 µg/mL (≈ 1.69 µM)
MIC [16]: 4 µg/mL (≈ 13.5 µM)
MIC [17]: 4 µg/mL (≈ 13.5 µM)
MIC [18]: 4 µg/mL (≈ 13.5 µM)
MIC [19]: 4 µg/mL (≈ 13.5 µM)
MIC [20]: 8 µg/mL (≈ 27.1 µM)
MIC [21]: 8 µg/mL (≈ 27.1 µM)
MIC [22]: 16 µg/mL (≈ 54.2 µM)
MIC [23]: 16 µg/mL (≈ 54.2 µM)

C[C@@H](O)C1C(=O)N2C(C(=O)O)=C(CN3CC[C@H](CNC(=N)N)C3)[C@H](C)C12 (stereo partly drawn) [Compound 99]
MIC [1]: 0.25 µg/mL (≈ 0.684 µM)
MIC [2]: 1 µg/mL (≈ 2.74 µM)
MIC [3]: 2 µg/mL (≈ 5.47 µM)
MIC [4]: 2 µg/mL (≈ 5.47 µM)
MIC (strain #5 Citrobacter diversus): 0.5 µg/mL (≈ 1.37 µM)
MIC (strain #6 Citrobacter freundii): 1 µg/mL (≈ 2.74 µM)
MIC [5]: 2 µg/mL (≈ 5.47 µM)
MIC [6]: 0.5 µg/mL (≈ 1.37 µM)
MIC [7]: 1 µg/mL (≈ 2.74 µM)
MIC [8]: 0.5 µg/mL (≈ 1.37 µM)
MIC [9]: 0.5 µg/mL (≈ 1.37 µM)
MIC (strain #12 Escherichia coli): 0.5 µg/mL (≈ 1.37 µM)
MIC (strain #13 Escherichia coli): 1 µg/mL (≈ 2.74 µM)
MIC (strain #14 Klebsiella oxytoca): 2 µg/mL (≈ 5.47 µM)
MIC [10]: 1 µg/mL (≈ 2.74 µM)
MIC [11]: ≤ 0.008 µg/mL
MIC (strain #17 Morganella Morganii): 4 µg/mL (≈ 10.9 µM)
MIC (strain #18 Morganella Morganii): 4 µg/mL (≈ 10.9 µM)
MIC (strain #19 Proteus vulgaris): 2 µg/mL (≈ 5.47 µM)
MIC (strain #20 Proteus mirabilis): 1 µg/mL (≈ 2.74 µM)
MIC [12]: 4 µg/mL (≈ 10.9 µM)
MIC [13]: 1 µg/mL (≈ 2.74 µM)
MIC (strain #23 Serratia marcescens): 2 µg/mL (≈ 5.47 µM)
MIC (strain #24 Serratia marcescens): 4 µg/mL (≈ 10.9 µM)
MIC [14]: 1 µg/mL (≈ 2.74 µM)
MIC (strain #26 Shigella sonnei): 1 µg/mL (≈ 2.74 µM)
MIC (strain #27 Shigella flexneri): 1 µg/mL (≈ 2.74 µM)
MIC [15]: 0.25 µg/mL (≈ 0.684 µM)
MIC [16]: 2 µg/mL (≈ 5.47 µM)
MIC [17]: 2 µg/mL (≈ 5.47 µM)
MIC [18]: 1 µg/mL (≈ 2.74 µM)
MIC [19]: 4 µg/mL (≈ 10.9 µM)
MIC [20]: 4 µg/mL (≈ 10.9 µM)
MIC [21]: 4 µg/mL (≈ 10.9 µM)
MIC [22]: 4 µg/mL (≈ 10.9 µM)
MIC [23]: > 32 µg/mL

C[C@@H](O)C1C(=O)N2C(C(=O)O)=C(CN3CC[C@H](NC(=N)NS(C)(=O)=O)C3)[C@H](C)C12 (stereo partly drawn) [Compound 106]
MIC [1]: 4 µg/mL (≈ 9.31 µM)
MIC [2]: 2 µg/mL (≈ 4.66 µM)
MIC [3]: 8 µg/mL (≈ 18.6 µM)
MIC [4]: 2 µg/mL (≈ 4.66 µM)
MIC (strain #5 Citrobacter diversus): 1 µg/mL (≈ 2.33 µM)
MIC (strain #6 Citrobacter freundii): 1 µg/mL (≈ 2.33 µM)
MIC [5]: 2 µg/mL (≈ 4.66 µM)
MIC [6]: 1 µg/mL (≈ 2.33 µM)
MIC [7]: 2 µg/mL (≈ 4.66 µM)
MIC [8]: 1 µg/mL (≈ 2.33 µM)
MIC [9]: 0.5 µg/mL (≈ 1.16 µM)
MIC (strain #12 Escherichia coli): 1 µg/mL (≈ 2.33 µM)
MIC (strain #13 Escherichia coli): 1 µg/mL (≈ 2.33 µM)
MIC (strain #14 Klebsiella oxytoca): 2 µg/mL (≈ 4.66 µM)
MIC [10]: 1 µg/mL (≈ 2.33 µM)
MIC [11]: ≤ 0.008 µg/mL
MIC (strain #17 Morganella Morganii): 4 µg/mL (≈ 9.31 µM)
MIC (strain #18 Morganella Morganii): 4 µg/mL (≈ 9.31 µM)
MIC (strain #19 Proteus vulgaris): 2 µg/mL (≈ 4.66 µM)
MIC (strain #20 Proteus mirabilis): 1 µg/mL (≈ 2.33 µM)
MIC [12]: 4 µg/mL (≈ 9.31 µM)
MIC [13]: 1 µg/mL (≈ 2.33 µM)
MIC (strain #23 Serratia marcescens): 2 µg/mL (≈ 4.66 µM)
MIC (strain #24 Serratia marcescens): 2 µg/mL (≈ 4.66 µM)
MIC [14]: 1 µg/mL (≈ 2.33 µM)
MIC (strain #26 Shigella sonnei): 1 µg/mL (≈ 2.33 µM)
MIC (strain #27 Shigella flexneri): 0.5 µg/mL (≈ 1.16 µM)
MIC [15]: 1 µg/mL (≈ 2.33 µM)
MIC [16]: 8 µg/mL (≈ 18.6 µM)
MIC [17]: 8 µg/mL (≈ 18.6 µM)
MIC [18]: 4 µg/mL (≈ 9.31 µM)
MIC [19]: 8 µg/mL (≈ 18.6 µM)
MIC [20]: 8 µg/mL (≈ 18.6 µM)
MIC [21]: 8 µg/mL (≈ 18.6 µM)
MIC [22]: 16 µg/mL (≈ 37.3 µM)
MIC [23]: > 32 µg/mL

From US9937151B2, “Carbapenem antibacterials with gram-negative activity” (priority 2010, dated 2018)
